Assay results from ChEMBL document CHEMBL5726197, “Oxoazetidine derivatives, process for the preparation thereof and use thereof in human medicine and in cosmetics” (2017).

Tests used:
[1] = molecular target: Melanocyte-stimulating hormone receptor (Homo sapiens, UniProt Q01726); experiment: (§1) Transactivation Assay: In the presence of an activator (agonist), the melanocortin receptor will activate the cAMP pathway which, via the CRE-Luc vector, will result in the synthesis of luciferase. After the addition of a lysis buffer containing a luminescent substrate for luciferase, it will be possible to measure the luminescence proportional to the degree of activation or of inhibition of the receptor. The products are solubilized at 10 mM in DMSO. They are tested in the form of dose-response at a final DMSO concentration of 0.1%. The range comprising 10 points and one zero begins at 10 μM with 4-fold dilutions. For testing agonists, the products are tested alone. For determining the behaviour of antagonists, the products of interest are tested in the presence of 1 nM NDP-MSH (reference agonist). The cells are seeded at a rate of 5000 cells per well (384 well plate) in serum-free DMEM medium, and incubated overnight at 37° C., 5% CO2.The products and the reference ligand (NDP-MSH) are added the following day, and the plates are again incubated for 6 h at 37° C., 5% CO2. After the addition of lysis buffer containing luciferin, the plates are read on a Top-Count instrument. The results are standardized as % activity using the 100% (cells+NDP-MSH at 10 nM) and 0% (cells alone) controls. An EC50 is calculated for each product using the XLFit software. The results are given in nM. […]
Sequence of Melanocyte-stimulating hormone receptor (Q01726 whole entry): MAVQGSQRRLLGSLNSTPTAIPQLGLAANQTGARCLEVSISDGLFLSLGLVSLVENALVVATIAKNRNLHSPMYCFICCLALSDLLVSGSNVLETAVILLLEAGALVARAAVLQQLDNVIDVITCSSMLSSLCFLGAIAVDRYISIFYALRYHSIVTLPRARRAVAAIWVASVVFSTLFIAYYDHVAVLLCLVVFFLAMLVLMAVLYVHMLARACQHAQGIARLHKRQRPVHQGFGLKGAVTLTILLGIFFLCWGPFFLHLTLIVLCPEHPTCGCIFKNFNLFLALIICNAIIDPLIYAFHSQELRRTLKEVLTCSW

Melanocortin receptor 4 = Melanocortin receptor 4 (Homo sapiens, UniProt P32245); experiment: as §1
Sequence of Melanocortin receptor 4 (P32245 whole entry): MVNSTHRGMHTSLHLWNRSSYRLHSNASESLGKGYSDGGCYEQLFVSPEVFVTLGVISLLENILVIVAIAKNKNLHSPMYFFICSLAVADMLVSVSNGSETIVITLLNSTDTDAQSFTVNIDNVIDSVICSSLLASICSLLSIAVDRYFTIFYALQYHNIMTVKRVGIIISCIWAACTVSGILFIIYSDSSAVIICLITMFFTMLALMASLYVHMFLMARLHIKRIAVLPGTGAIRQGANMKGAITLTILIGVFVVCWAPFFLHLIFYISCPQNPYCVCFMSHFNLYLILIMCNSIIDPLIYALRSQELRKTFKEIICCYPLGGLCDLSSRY

CCCCCC1(c2ccccc2OC)CN(C(=O)[C@@H](Cc2ccc(OC)cc2)NC(=O)CCc2c[nH]cn2)C1
EC50 [1]: 60 nM | EC50 (Melanocortin receptor 4): 30 nM
